# Laboratory results as given in patent US4473581A (priority 1979, dated 1984).
# Counter-ions that a name gives are not always drawn.
# Assays:
# [1] = background statement on known inducers; cited from earlier work
# [2] = system: vesicular stomatitis virus (VSV) in L-1D cells; assay type: cell-based
# [3] = system: interferon; assay: Interferon induction in healthy volunteers; assay type: in vivo; settings: human
# Experimental: Capsules of Ge were orally administered to eight healthy volunteers, 21 to 23 years old. The dose administered to one group (two men and two women) was 75 mg/kg and that administrated to the other group (two men and two women) was 25 mg/kg. Serum samples were collected at predetermined intervals, the interferon titers were determined, and the results reflected in FIGS. 4 and 5 were obtained. […] The reported results thus evidence that Ge induces A-M.phi. in humans as well as in mice.
# [4] = system: vesicular stomatitis virus (VSV) in L-1D cells; assay type: cell-based; remark: listed apart in the source
# [5] = system: MEP-II tumor cells; assay: Anti-tumor effect of oral Ge in MEP-II tumor bearing mice; assay type: in vivo, DDI mice; settings: 100 and 300 mg/kg oral, once daily, seven days
# Experimental: 4×10^3 MEP-II tumor cells were transplanted intraperitoneally in DDI mice as described above. Twenty-four hours later, Ge was orally administered, once daily for seven consecutive days at a daily dosage of 100 or 300 mg/kg to ascertain any anti-tumor effect. In a control group, 0.2 ml of physiological saline solution was orally administered, also once daily for seven days.
# [6] = system: FM-3A cells; assay: Growth inhibition of FM-3A tumor cells co-cultured with macrophages from Ge treated mice; assay type: cell-based; settings: 48 hours
# Experimental: It is known that interferon has the ability to convert a standing macrophage into a tumoricidal macrophage, deemed activated macrophage (A-M.phi.), either in vivo or in vitro. Since the Ge induced the formation of immune interferon in vivo, it was expected that A-M: would be induced in the Ge treated animal.
# Peritoneal exudate cells obtained from mice 72 hours after treatment with a 300 mg/kg dose of Ge were cultured for 20 minutes in a petri dish utilizing RPMI-1640 medium supplemented with 10% fetal calf serum. Cells adhering to the petri dish, obtained by washing with the same culture medium, were separately co-cultured with FM-3A cells as the target tumor cells, in a ratio of 10:1. FM-3A cells were cultured singly, or with macrophages derived from normal mice, as the control. In each run, the growth of FM-3A cells was monitored. A determination of the number of FM-3A cells was carried out per the dye exclusion test using Trypan-Blue. […] Thus, it is apparent that Ge induces the formation of A-M: in live mice.
# [7] = system: vesicular stomatitis virus (VSV) in human embryonic lung cells; assay type: cell-based; settings: human serum, 75 mg/kg oral
# [8] = system: Ehrlich ascites tumor cells; assay: Anti-tumor activity of peritoneal exudate cells from Ge treated mice on Ehrlich ascites tumor bearing mice; assay type: in vivo, DDI mice; settings: peritoneal exudate cells from mice given 300 mg/kg Ge, six days i.p. (FIG. 3)
# Experimental: An anti-tumor activity test of peritoneal exudate cells obtained from mice treated with Ge in a dosage amount of 300 mg/kg was conducted on Ehrlich ascites tumor bearing mice.
# 1×10^5 cells/mouse of Ehrlich ascites tumor cells were transplanted into the peritoneal cavity of DDI mice. Twenty-four hours later, these mice were intraperitoneally supplied with 5×10^3 peritoneal exudate cells obtained from mice treated with Ge once daily for six consecutive days. Peritoneal exudate cells obtained from saline injected mice were likewise supplied to tumor bearing mice as a control.
# [9] = Acute toxicity (LD50) in rats; settings: rat, in vivo
# [10] = Acute toxicity (LD50) in mice; settings: mouse, in vivo
# [11] = system: rats; assay: Chronic toxicity test in rats, oral, six months; settings: six months, 30, 300 or 3000 mg/kg per day
# [12] = system: dogs; assay: Chronic toxicity in dogs, intravenous, six months; settings: 500 mg/kg per day
# [13] = intravenous injection, larger than any physically practicable maximum amount
compound,measurement,setting,value
CCCCCCCCCCCCCCCCCCN(CCCCCCCCCCCCCCCCCC)CCCN(CCO)CCO [CP-20961],adverse side effects,[1],one or more adverse side effects
O=C(O)C[CH2][Ge](=[O])[O][Ge](=[O])[CH2]CC(=O)O [Ge],stability of induced factor to heat and acid (in words),"[2]; mouse serum, 56° C. one hour, acidification to pH 2.0",unstable to thermal treatment at 56 °C for one hour and also to acidification to pH 2.0
same,trypsin lability of induced factor (in words),"[2]; mouse serum, trypsin 37° C., 3 hours",trypsin labile
same,type of interferon induced,"[2]; mouse serum, from thermal and acid treatments",immune (type II) interferon
same,production of interferon,[3]; 25 mg/kg oral capsules (FIGS. 4 and 5),"production of interferon was observed, although the level was lower"
same,production of interferon,[3]; 75 mg/kg oral capsules (FIGS. 4 and 5),significant production of interferon was observed in each case
same,viral infection inhibitory activity in serum,"[4]; mice, 300 mg/kg oral, 25 hours after administration (FIG. 1)",viral infection inhibitory activity was detected
same,dose dependency of viral infection inhibitory activity,"[4]; mice, oral, varied doses (FIG. 2)",dose dependent
same,species specificity of induced viral infection inhibitory factor,"[4]; mouse and human sera compared on L-1D, human embryonic lung and chicken embryonic cells",species specific
same,"antiviral activity of induced agent, L-1D cells (in words)","[4]; mouse serum, 300 mg/kg oral",displayed resistance to viral infection only in the L-1D cells
same,anti-tumor activity (in words),[5],both dosage amounts of Ge exhibited anti-tumor activity
same,growth of FM-3A cells (in words),[6],prominently inhibited
same,"antiviral activity of induced agent, human cells (in words)",[7],displayed antiviral activity only in human cells
same,anti-tumor activity of macrophage activated by Ge treatment (in words),[8],marked anti-tumor activity
O=C(O)C[CH2][Ge](=[O])[O][Ge](=[O])[CH2]CC(=O)O [carboxyethyl germanium sesquioxide],LD50,[9]; [13],> 1000 mg/kg
same,LD50,[9]; oral,> 10000 mg/kg
same,LD50,[10]; [13],> 1000 mg/kg
same,LD50,[10]; oral,> 6300 mg/kg
same,death in chronic toxicity test,[11],no rat died
same,pathological disorder in chronic toxicity test,[11],no pathological disorder was observed
same,toxicity,[12],no toxicity was found
CCN(CC)CCOc1ccc2c(c1)C(=O)c1cc(OCCN(CC)CC)ccc1-2 [tilorone hydrochloride],adverse side effects,[1],one or more adverse side effects
"double-stranded complex polyriboinosinic acid and polyribocytidylic acid [Poly 1-C, reference compound]",Interferon Titer,[2]; pH 2,640
same,Remaining amount of titer,[2]; pH 2,100%
